Experimental data reported in the supplement of paper PMC10307832.

What was measured:
Experiment in all cases: relative viability (nuclei count vs DMSO), 5 days (fraction); higher = more cells survive
NCI-H1755 = test system: NCI-H1755
In short: (§1)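 Nuclei were stained with Hoechst during a one-step fixation (final 0.05% Triton X-100, 1% formaldehyde, 1 ug/ml Hoechst) carried out 5 days after dosing, then counted on 4× images. The cells, lung cancer lines in 1536-well plates, had been dosed by pin tool the day after seeding with one drug alone or a fixed anchor-drug dose plus five library-drug doses (not always all listed) in √10 steps. Relative viability is the nuclei count in treated wells divided by that in vehicle wells, and each value is the median of duplicate plates.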

LCLC-103H = test system: LCLC-103H
In short: as §1

NCI-H460 = test system: NCI-H460
In short: as §1

HCC-827 = test system: HCC-827
In short: as §1

HOP-62 = test system: HOP-62
In short: as §1

HARA = test system: HARA
In short: as §1

NCI-H23 = test system: NCI-H23
In short: as §1

NCI-H522 = test system: NCI-H522
In short: as §1

NCI-H1437 = test system: NCI-H1437
In short: as §1

NCI-H1395 = test system: NCI-H1395
In short: as §1

NCI-H2228 = test system: NCI-H2228
In short: as §1

EMC-BAC-2 = test system: EMC-BAC-2
In short: as §1

SK-LU-1 = test system: SK-LU-1
In short: as §1

NCI-H727 = test system: NCI-H727
In short: as §1

NCI-H1792 = test system: NCI-H1792
In short: as §1

SW 1573 = test system: SW 1573
In short: as §1

CAL-12T = test system: CAL-12T
In short: as §1

COR-L 105 = test system: COR-L 105
In short: as §1

NCI-H2009 = test system: NCI-H2009
In short: as §1

A-427 = test system: A-427
In short: as §1

NCI-H1915 = test system: NCI-H1915
In short: as §1

O=c1cc(N2CCOCC2)oc2c(-c3cccc4c3sc3ccccc34)cccc12 + CCNC(=O)c1noc(-c2cc(C(C)C)c(O)cc2O)c1-c1ccc(CN2CCOCC2)cc1 [Luminespib] (partner 0.01 µM)
relative viability (NCI-H1755; first compound 0.01 µM): 0.501
relative viability (NCI-H1755; first compound 0.03162 µM): 0.265
relative viability (NCI-H1755; first compound 0.1 µM): 0.496
relative viability (NCI-H1755; first compound 0.3162 µM): 0.419
relative viability (NCI-H1755; first compound 1 µM): 0.563
relative viability (LCLC-103H; first compound 0.01 µM): 0.912
relative viability (LCLC-103H; first compound 0.03162 µM): 1.01
relative viability (LCLC-103H; first compound 0.1 µM): 1.02
relative viability (LCLC-103H; first compound 0.3162 µM): 0.898
relative viability (LCLC-103H; first compound 1 µM): 0.925
relative viability (NCI-H460; first compound 0.01 µM): 0.037
relative viability (NCI-H460; first compound 0.03162 µM): 0.0402
relative viability (NCI-H460; first compound 0.1 µM): 0.0368
relative viability (NCI-H460; first compound 0.3162 µM): 0.035
relative viability (NCI-H460; first compound 1 µM): 0.0452
relative viability (HCC-827; first compound 0.01 µM): 0.642
relative viability (HCC-827; first compound 0.03162 µM): 0.541
relative viability (HCC-827; first compound 0.1 µM): 0.626
relative viability (HCC-827; first compound 0.3162 µM): 0.629
relative viability (HCC-827; first compound 1 µM): 0.71
relative viability (HOP-62; first compound 0.01 µM): 1.05
relative viability (HOP-62; first compound 0.03162 µM): 0.822
relative viability (HOP-62; first compound 0.1 µM): 0.842
relative viability (HOP-62; first compound 0.3162 µM): 1.03
relative viability (HOP-62; first compound 1 µM): 0.974
relative viability (HARA; first compound 0.01 µM): 0.682
relative viability (HARA; first compound 0.03162 µM): 0.679
relative viability (HARA; first compound 0.1 µM): 0.806
relative viability (HARA; first compound 0.3162 µM): 0.771
relative viability (HARA; first compound 1 µM): 0.905
relative viability (NCI-H23; first compound 0.01 µM): 0.194
relative viability (NCI-H23; first compound 0.03162 µM): 0.194
relative viability (NCI-H23; first compound 0.3162 µM): 0.239
relative viability (NCI-H23; first compound 1 µM): 0.206
relative viability (NCI-H522; first compound 0.01 µM): 1.23
relative viability (NCI-H522; first compound 0.03162 µM): 1.37
relative viability (NCI-H522; first compound 0.1 µM): 0.915
relative viability (NCI-H522; first compound 0.3162 µM): 1.06
relative viability (NCI-H522; first compound 1 µM): 1.14
relative viability (NCI-H1437; first compound 0.01 µM): 0.835
relative viability (NCI-H1437; first compound 0.03162 µM): 1.03
relative viability (NCI-H1437; first compound 0.1 µM): 1.1
relative viability (NCI-H1437; first compound 0.3162 µM): 1.08
relative viability (NCI-H1437; first compound 1 µM): 1.04
relative viability (NCI-H1395; first compound 0.01 µM): 0.726
relative viability (NCI-H1395; first compound 0.03162 µM): 0.75
relative viability (NCI-H1395; first compound 0.1 µM): 0.683
relative viability (NCI-H1395; first compound 0.3162 µM): 0.622
relative viability (NCI-H1395; first compound 1 µM): 0.532
relative viability (NCI-H2228; first compound 0.01 µM): 0.151
relative viability (NCI-H2228; first compound 0.03162 µM): 0.112
relative viability (NCI-H2228; first compound 0.1 µM): 0.125
relative viability (NCI-H2228; first compound 0.3162 µM): 0.191
relative viability (NCI-H2228; first compound 1 µM): 0.133
relative viability (EMC-BAC-2; first compound 0.01 µM): 1.21
relative viability (EMC-BAC-2; first compound 0.03162 µM): 1.24
relative viability (EMC-BAC-2; first compound 0.1 µM): 1.14
relative viability (EMC-BAC-2; first compound 0.3162 µM): 1.07
relative viability (EMC-BAC-2; first compound 1 µM): 1.11
relative viability (SK-LU-1; first compound 0.01 µM): 0.206
relative viability (SK-LU-1; first compound 0.03162 µM): 0.234
relative viability (SK-LU-1; first compound 0.1 µM): 0.201
relative viability (SK-LU-1; first compound 0.3162 µM): 0.206
relative viability (SK-LU-1; first compound 1 µM): 0.215
relative viability (NCI-H727; first compound 0.01 µM): 0.324
relative viability (NCI-H727; first compound 0.03162 µM): 0.399
relative viability (NCI-H727; first compound 0.1 µM): 0.375
relative viability (NCI-H727; first compound 0.3162 µM): 0.356
relative viability (NCI-H727; first compound 1 µM): 0.416
relative viability (NCI-H1792; first compound 0.01 µM): 0.502
relative viability (NCI-H1792; first compound 0.03162 µM): 0.359
relative viability (NCI-H1792; first compound 0.1 µM): 0.576
relative viability (NCI-H1792; first compound 0.3162 µM): 0.497
relative viability (NCI-H1792; first compound 1 µM): 0.531
relative viability (SW 1573; first compound 0.01 µM): 0.419
relative viability (SW 1573; first compound 0.03162 µM): 0.205
relative viability (SW 1573; first compound 0.1 µM): 0.211
relative viability (SW 1573; first compound 0.3162 µM): 0.735
relative viability (SW 1573; first compound 1 µM): 0.218
relative viability (CAL-12T; first compound 0.01 µM): 0.723
relative viability (CAL-12T; first compound 0.03162 µM): 0.621
relative viability (CAL-12T; first compound 0.1 µM): 0.292
relative viability (CAL-12T; first compound 0.3162 µM): 0.31
relative viability (CAL-12T; first compound 1 µM): 0.527
relative viability (COR-L 105; first compound 0.01 µM): 0.738
relative viability (COR-L 105; first compound 0.03162 µM): 0.739
relative viability (COR-L 105; first compound 0.1 µM): 0.758
relative viability (COR-L 105; first compound 0.3162 µM): 0.754
relative viability (COR-L 105; first compound 1 µM): 0.603
relative viability (NCI-H2009; first compound 0.01 µM): 0.931
relative viability (NCI-H2009; first compound 0.03162 µM): 0.899
relative viability (NCI-H2009; first compound 0.1 µM): 0.995
relative viability (NCI-H2009; first compound 0.3162 µM): 0.962
relative viability (NCI-H2009; first compound 1 µM): 0.97
relative viability (A-427; first compound 0.01 µM): 0.944
relative viability (A-427; first compound 0.03162 µM): 0.903
relative viability (A-427; first compound 0.1 µM): 0.898
relative viability (A-427; first compound 0.3162 µM): 0.93
relative viability (A-427; first compound 1 µM): 1.01
relative viability (NCI-H1915; first compound 0.01 µM): 0.875
relative viability (NCI-H1915; first compound 0.03162 µM): 0.831
relative viability (NCI-H1915; first compound 0.1 µM): 0.807
relative viability (NCI-H1915; first compound 0.3162 µM): 0.791
relative viability (NCI-H1915; first compound 1 µM): 0.855
